Experimental data reported in patent publication US11105794B2, “In vitro nephrotoxicity screening assay” (Hoffmann-La Roche Inc., priority 2016, dated 2021).
l = locked nucleic acid (LNA); d = 2'-deoxy (DNA)

System: Primary human hepatocytes
Assay: EGF assay, culture media of primary human hepatocytes;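 further: values as percent of saline vehicle control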
Format: cell-based
Details: 10 ng/ml EGF in medium
Description: Cryopreserved human hepatocytes were suspended in William's Medium E (WME) without phenol red (Sigma W-1878) supplemented with 10% fetal calf serum, penicillin (100 U/ml), streptomycin (0.1 mg/ml) at a density of approx. 1×10^6 cells/ml and seeded into collagen-coated 96-well plates (Becton Dickinson AG, Allschwil, Switzerland) at a density of 0.4×10^5 cells/well. Cells were pre-cultured for 3 to 4 h allowing for attachment to cell culture plates before start of treatment with oligonucleotides.
Before oligonucleotide treatment the seeding medium was replaced by 90 μl of serum free WME.
The total volume of each well was 100 μl. PBS served as vehicle control.
Human primary hepatocytes were cultivated as described in the “Materials and methods” section with addition of 10 ng/ml of EGF to the medium. At confluence the cells were treated with oligonucleotide as described in the “Materials and methods” section, in concentrations of 10 or 100 μM.
The medium was obtained at day 3, and the EGF level was measured according to the assay described in the “Materials and methods” section.

TGCtacaaaacCCA (antisense TGCTACAAAACCCA; sugars from the 5' end l3 d8 l3, backbone and methylation of C not given here) [Compound 3-1]
EGF (day 3, 10 μM): 227 % saline
EGF (day 3, 100 μM): 411 % saline

GCtgtgtgagcttGG (antisense GCTGTGTGAGCTTGG; sugars from the 5' end l2 d11 l2, backbone and methylation of C not given here) [Compound 4-1]
EGF (day 3, 10 μM): 323 % saline
EGF (day 3, 100 μM): 985 % saline
